Test results from patent US11098040B2, “Compounds and methods of use” (Ferro Therapeutics, Inc., priority 2018, dated 2021).
Like-named read-outs stand apart in the source and are kept apart here.

Tests used:
[1] = system: A549; test: Cell viability assay, A549 cells; format: cell-based
Procedure: Example 5: Inducer Compound Effect on Growth of A549 and KP4 Cells
Cell viability assay was performed to assess the potency of the compounds in cancer cell line KP4 (pancreatic ductal adenocarcinoma). Cells at a density of 1,000-10,000 cells/well were seeded in 96-well plates and incubated at 37° C. overnight. A series of 9 different concentrations of compound stocks (500×) were created by 3-fold serial dilution in DMSO. These compounds were further diluted in culture media and then added to cells so that the final DMSO concentration was equal to 0.25% or less. After 96 hours of incubation, 50 μL of CellTiter Glo reagent (Promega) was added to each well and luminescence was measured after 10 minutes using EnVision (PerkinElmer). All compounds were tested initially from 30 μM as the top concentration in duplicates (range of 4.6 nM-30 μM). […] Luminescence from cells treated with DMSO alone was set as Max and % of inhibition was calculated as follows: Inhibition %=(Max-Sample value)/Max*100. Data was analyzed using XL-fit software (ID Business Solutions Ltd.). IC50, relative IC50, or % of top inhibition was calculated. […]

[2] = system: SJSA-1; test: Cell proliferation (Alamar Blue) assay, SJSA-1 osteosarcoma, with/without ferrostatin; format: cell-based, human; conditions: read-out: IC50
Procedure: (§1) Cell viability assay was performed to assess the potency of the compounds in human cancer cell lines 786-O (renal cell carcinoma) and SJSA-1 (osteosarcoma). Additional cell lines, such as those described above in Example 4 as well as various others, e.g., pancreatic cancer cell lines (Panc 02.13, BxPC-3, Panc 12, Panc 02.03, Panc 6.03, PSN-1, HPAC, and Capan-1) and prostate cancer cell lines (PC-3, DU145, 22Rv1, NCI-H660, BPH1, LNCaP, BM-1604, and MDA PCa 2b), were tested for select compounds as shown in Table 25.
(§2) Cells (SJSA-1, 786-O and A431) were seeded (5000 cells/100 μL/well) in 96-well tissue culture plate and incubated at 37° C./5% CO2 for 16-24 hours. The cells were then treated with compounds (25 μL of 5×). The compound concentrations were 10-0.0005 μM prepared in 3-fold serial dilutions with final DMSO concentration of 1%. The plates were then incubated for 24 h at 37° C./5% CO2 in a moist environment. Then Alamar Blue™ reagent (final concentration 1×-12.5 μL) was added to each well and incubated for 1.5 hours at 37° C./5% CO2. The plates were read on fluorescence reader at 540 nm excitation and 590 nm emission wavelengths. The IC50 values were subsequently determined using a sigmoidal dose-response curve (variable slope) in GraphPad Prism® 5 software.
(§3) Studies have shown that lipophilic antioxidants, such as ferrostatin, can rescue cells from GPX4 inhibition-induced ferroptosis. For instance, mesenchymal state GPX4-knockout cells can survive in the presence of ferrostatin, however, when the supply of ferrostatin is terminated, these cells undergo ferroptosis (see, e.g., Viswanathan et al., Nature 547:453-7, 2017). […] Accordingly, the ability of a molecule to induce ferroptotic cancer cell death, and that such ability is admonished by the addition of ferrostatin, is clear indication that the molecule is an GPX4 inhibitor.

[3] = system: 786-O; test: Cell proliferation (Alamar Blue) assay, 786-O renal cell carcinoma, with/without ferrostatin; format: cell-based; conditions: Homo sapiens, 786-0, Cell Line 786-O; read-out: IC50
Procedure: as §1, §2, §3

[4] = system: KP4; test: Cell viability assay (CellTiter Glo), pancreatic ductal adenocarcinoma KP4; format: cell-based, human
In short: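 KP4 cells seeded at 1,000–10,000 per well, treated 96 h with 9-point 3-fold dilutions from 30 μM top (4.6 nM–30 μM, duplicates; ≤0.25% DMSO). Viability by CellTiter Glo luminescence; % inhibition relative to DMSO-only wells, giving IC50, relative IC50 or % top inhibition.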

[5] = Whole blood stability, mouse; format: in vitro ADME
Source text: (§4) The results of the assay on stability in blood and IC50 values for pancreatic cancer cell line KP4 are given below in Table 24.

[6] = Whole blood stability, human; format: in vitro ADME
Source text: as §4

[7] = Homo sapiens, A549, Cell Line A549, read-out: IC50
[8] = Homo sapiens, SJSA-1, Cell Line SJSA-1
[9] = Homo sapiens, KP-4, Cell Line KP4, read-out: IC50
[10] = Homo sapiens, KP-4, 96 h, pancreatic cancer cell line KP4, 96 hours, CellTiter Glo, read-out: IC50 μM KP4

Row | IC50 [1, 7] | IC50 [2, 8] | IC50 [3] | IC50 [4, 9] | SMILES | also measured
1 | > 30 µM | 0.667 µM | 0.962 µM |  | C#CC(=O)N1[C@@H](C)Cc2c([nH]c3ccccc23)[C@@H]1C12CC(F)(C1)C2 [Compound 182] | 
2 | 7.95 µM | 0.108 µM | 0.117 µM |  | C#CC(=O)N1[C@@H](CCCC)Cc2c([nH]c3ccccc23)[C@@H]1C12CC(F)(C1)C2 [Compound 154] | 
3 | 21.8 µM | 0.468 µM | 1.1 µM |  | C#CC(=O)N1[C@@H](c2ccc(F)cc2)c2[nH]c3ccccc3c2C[C@@H]1C [Compound 206] | 
4 | 12.8 µM |  |  | 0.102 µM | CC(C)[C@H]1Cc2c([nH]c3ccccc23)[C@H](c2ccc(N3CCOCC3)cc2)N1C(=O)CCl [Compound 119] | 
5 | 27.4 µM | > 30 µM | > 30 µM |  | C=CC(=O)N1[C@@H](CCCC)Cc2c([nH]c3ccccc23)[C@@H]1c1ccc(F)cc1 [Compound 179] | 
6 | 3.05 µM | 0.908 µM | 1.2 µM |  | C#CC(=O)N1[C@@H](c2ccc(F)cc2)c2[nH]c3ccccc3c2C[C@@H]1C#N [Compound 190] | 
7 | 10.9 µM | 0.448 µM | 0.701 µM |  | C#CC(=O)N1[C@@H](c2ccc(F)cc2F)c2[nH]c3ccccc3c2C[C@@H]1C [Compound 200] | 
8 | > 30 µM | 16.2 µM | 12.3 µM |  | C=C(C(=O)N1[C@@H](CCCC)Cc2c([nH]c3ccccc23)[C@@H]1c1ccc(F)cc1)C(F)(F)F [Compound 184] | 
9 | 2.81 µM | 0.0935 µM | 0.137 µM |  | C[C@H]1Cc2c([nH]c3ccccc23)[C@H](c2ccc(F)cc2)N1C(=O)CCl [Compound 221] | 
10 | 1.86 µM |  |  | 0.458 µM | C[C@H]1Cc2c([nH]c3ccccc23)[C@H](c2ccc(C3(O)CCOCC3)cc2)N1C(=O)CCl [Compound 237] | 
11 | 2.4 µM |  |  |  | [2H]C([2H])(Cl)C(=O)N1[C@@H](c2ccc(C(=O)NC34CC5CC(CC(C5)C3)C4)cc2)c2[nH]c3ccccc3c2C[C@@H]1C(=O)OC [Compound 250] | 
12 | 20.6 µM | 0.133 µM | 0.267 µM |  | C#CC(=O)N1[C@@H](c2ccc(Cl)cc2)c2[nH]c3ccccc3c2C[C@@H]1C [Compound 196] | 
13 | > 30 µM |  | > 10 µM |  | CC(C)=CC(=O)N1[C@@H](c2ccc(N3CCOCC3)cc2)c2[nH]c3ccccc3c2C[C@@H]1C [Compound 225] | 
14 | 28.4 µM | > 30 µM | > 30 µM |  | CC#CC(=O)N1[C@@H](CCCC)Cc2c([nH]c3ccccc23)[C@@H]1c1ccc(F)cc1 [Compound 180] | 
15 | 16.4 µM | 0.256 µM | 0.394 µM |  | C#CC(=O)N1[C@@H](c2ccc(Br)cc2)c2[nH]c3ccccc3c2C[C@@H]1C [Compound 195] | 
16 | 4.45 µM |  |  | 8.69 µM | COC(=O)[C@H]1Cc2c([nH]c3ccccc23)[C@H](c2ccc(C(=O)OC(C)(C)C)cc2)N1C(=O)C(C)(C)CCl [Compound 264] | 
17 | 5.64 µM | 0.0102 µM | 0.133 µM |  | C#CC(=O)N1[C@@H](c2c(F)cc(F)cc2F)c2[nH]c3ccccc3c2C[C@@H]1C [Compound 197] | 
18 | > 10 µM |  |  | > 10 µM | C=CC(=O)N1[C@@H](c2ccc(N3CCOCC3)cc2)c2[nH]c3ccccc3c2C[C@@H]1C [Compound 238] | 

Row | IC50 [1, 7] | IC50 [2, 8] | IC50 [3] | IC50 [4, 9] | SMILES | also measured
19 | 14.3 µM | 0.265 µM | 0.286 µM |  | C#CC(=O)N1[C@@H](c2ccc(C#N)cc2)c2[nH]c3ccccc3c2C[C@@H]1C [Compound 194] | 
20 | 13.3 µM | 0.175 µM | 0.223 µM |  | C#CC(=O)N1[C@@H](c2ccc(OC)cc2)c2[nH]c3ccccc3c2C[C@@H]1C [Compound 193] | 
21 | > 30 µM |  |  | > 30 µM | C=C(C)C(=O)N1[C@@H](c2ccc(N3CCOCC3)cc2)c2[nH]c3ccccc3c2C[C@@H]1C [Compound 229] | 
22 | 4.11 µM | 4.2 µM |  |  | COCCOCCOCCOCCOC(=O)[C@H]1Cc2c([nH]c3ccccc23)[C@H](c2ccc(NC34CC5CC(CC(C5)C3)C4)cc2)N1C(=O)CCl [Example 189] | 
23 | 22 µM |  |  | > 30 µM | C[C@H]1Cc2c([nH]c3ccccc23)[C@H](c2ccc(N3CCOCC3)cc2)N1C(=O)/C=C/C(F)(F)F [Compound 230] | 
24 | > 30 µM | 0.146 µM | 8.19 µM |  | C#CC(=O)N1[C@@H](CCCC)Cc2c([nH]c3c(F)cc(CO)cc23)[C@@H]1c1ccc(F)cc1 [Compound 134] | 
25 | 4.1 µM | 0.206 µM |  |  | C#CC(=O)N1[C@@H](CCCCCC)Cc2c([nH]c3ccccc23)[C@@H]1c1ccc(F)cc1 [Compound 176] | IC50 ([1]; Cell Line A549, read-out: IC50): 4.18 µM; IC50 ([2]; Cell Line SJSA-1): 0.25 µM
26 | > 30 µM |  |  | > 30 µM | C/C=C/C(=O)N1[C@@H](c2ccc(N3CCOCC3)cc2)c2[nH]c3ccccc3c2C[C@@H]1C [Compound 228] | 
27 | 0.807 µM |  |  |  | C[C@H]1Cc2c([nH]c3ccc(Cl)cc23)[C@H](c2ccc(N3CCOCC3)cc2)N1C(=O)CCl [Compound 120] | IC50 [4, 10]: 0.1 to 0.5 µM
28 | 25.4 µM |  |  |  | COC(=O)[C@H]1Cc2c([nH]c3ccccc23)[C@H](c2ccc(O)cc2)N1C(=O)CCl [Compound 265] | Whole Blood Stability % Remaining at 37° C. Mouse ([5]; 0 min): 100.0%; Whole Blood Stability % Remaining at 37° C. Mouse ([5]; 30 min): 75.5%; Whole Blood Stability % Remaining at 37° C. Mouse ([5]; 60 min): 61.6%; Whole Blood Stability % Remaining at 37° C. Human ([6]; 0 min): 100.0%; Whole Blood Stability % Remaining at 37° C. Human ([6]; 30 min): 61.6%; Whole Blood Stability % Remaining at 37° C. Human ([6]; 60 min): 45.2%; IC50 [4, 10]: 0.1 to 0.5 µM
29 | 6.45 µM |  |  | 3.99 µM | CC#CC(=O)N1[C@@H](c2ccc(C(=O)OC)cc2)c2[nH]c3ccccc3c2C[C@@H]1C(=O)OC [Compound 272] | 
30 | 4.71 µM |  |  |  | CC[C@H]1Cc2c([nH]c3ccccc23)[C@H](c2ccc(N3CCOCC3)cc2)N1C(=O)CCl [Compound 117] | Whole Blood Stability % Remaining at 37° C. Mouse ([5]; 0 min): 100.0%; Whole Blood Stability % Remaining at 37° C. Mouse ([5]; 30 min): 92.3%; Whole Blood Stability % Remaining at 37° C. Mouse ([5]; 60 min): 45.8%; Whole Blood Stability % Remaining at 37° C. Human ([6]; 0 min): 100.0%; Whole Blood Stability % Remaining at 37° C. Human ([6]; 30 min): 80.5%; Whole Blood Stability % Remaining at 37° C. Human ([6]; 60 min): 70.3%; IC50 [4, 10]: < 0.01 µM
31 | 7.97 µM |  |  | 0.179 µM | CN(C)C(=O)[C@H]1Cc2c([nH]c3ccccc23)[C@H](c2ccc(N)cc2)N1C(=O)CCl [Compound 259] | IC50 ([4]; Cell Line KP4, read-out: IC50): 0.212 µM
32 | 11.8 µM |  |  | 4.54 µM | C=CC(=O)N1[C@@H](c2ccc(C(=O)OC)cc2)c2[nH]c3ccccc3c2C[C@@H]1C(=O)OC [Compound 274] | 
33 | 7.18 µM |  |  | 0.041 µM | C[C@H]1Cc2c([nH]c3ccc(C(C)(C)O)cc23)[C@H](c2ccc(N3CCOCC3)cc2)N1C(=O)CCl [Compound 235] | 
34 | 17.5 µM |  |  | 1.2 µM | C[C@H]1Cc2c([nH]c3ccccc23)[C@H](c2ccc(C3(O)COC3)cc2)N1C(=O)CCl [Compound 236] | IC50 ([4]; Cell Line KP4, read-out: IC50): > 1 µM
35 |  |  |  | 0.362 µM | C[C@H]1Cc2c([nH]c3ccc(Cl)cc23)[C@H](c2ccc(N3CCOCC3)cc2)N1C(=O)CCl [Example 120] | IC50 ([1]; Homo sapiens, A549, A549, read-out: IC50 for A549): 0.81 µM
36 | 8.14 µM |  |  | 10.4 µM | CC(C)(C)OC(=O)c1ccc([C@H]2c3[nH]c4ccccc4c3C[C@H](CO)N2C(=O)CCl)cc1 [Compound 257] | 
